Assay results reported in US10617667B2, “Method for treating brain tumors” (ONO PHARMACEUTICAL CO., LTD., priority 2017, dated 2020).

Key:
EP4 receptor [1] = molecular target: T1, EP4 receptor (Homo sapiens, UniProt P35408); conditions: as taught by Patent Document 1 (WO2016/111347); cited from earlier work
EP4 receptor [2] = molecular target: T1, EP4 receptor; conditions: as taught by Patent Document 1 (WO2016/111347); cited from earlier work; remark: listed apart in the source
[3] = test system: mouse glioma cell line GL261 orthotopic-graft; test: Survival in mouse glioma cell line GL261 orthotopic-graft model; type: in vivo, immunocompetent syngeneic C57BL/6 mice; conditions: Compound A 3 mg/kg oral twice a day
Experimental: Effects of Combination of Compound A and an Anti-Mouse PD-1 Antibody in Mouse Glioma Cell Line GL261 Orthotopic-Graft Models Using Immunocompetent Syngeneic C57BL/6 Mice
The effect of a combination of Compound A and an anti-mouse PD-1 antibody (4H2, see WO2006/121168) was evaluated in mouse glioma cell line GL261 orthotopic-graft models using immunocompetent syngeneic C57BL/6 mice. GL261 was cultured in a CO2 incubator using an RPMI medium (Mediatech, Inc.) containing 10 vol % of FBS, 100 units/mL of penicillin, and 100 μg/mL of streptomycin. On the day of transplant, GL261 was harvested after removing the culture supernatant, and washing the cells with PBS. The harvested GL261 cells were suspended in PBS to obtain transplant cells. The transplant cells (5×10^4) were then transplanted to the brain of female C57BL/6J mice (The Jackson Laboratory) under anesthesia.
After 5 days from transplant, the mice were divided into 4 groups: a vehicle group, a Compound A single group, an anti-mouse PD-1 antibody single group, and a combination group (Compound A and the anti-mouse PD-1 antibody). Each group included 10 mice. […] The general condition of the mice was observed once a day from the day following the day of transplant of GL261, and scored according to the following table. Thus, the survival rate of the mice was evaluated.

T1 sequence (P35408 whole entry): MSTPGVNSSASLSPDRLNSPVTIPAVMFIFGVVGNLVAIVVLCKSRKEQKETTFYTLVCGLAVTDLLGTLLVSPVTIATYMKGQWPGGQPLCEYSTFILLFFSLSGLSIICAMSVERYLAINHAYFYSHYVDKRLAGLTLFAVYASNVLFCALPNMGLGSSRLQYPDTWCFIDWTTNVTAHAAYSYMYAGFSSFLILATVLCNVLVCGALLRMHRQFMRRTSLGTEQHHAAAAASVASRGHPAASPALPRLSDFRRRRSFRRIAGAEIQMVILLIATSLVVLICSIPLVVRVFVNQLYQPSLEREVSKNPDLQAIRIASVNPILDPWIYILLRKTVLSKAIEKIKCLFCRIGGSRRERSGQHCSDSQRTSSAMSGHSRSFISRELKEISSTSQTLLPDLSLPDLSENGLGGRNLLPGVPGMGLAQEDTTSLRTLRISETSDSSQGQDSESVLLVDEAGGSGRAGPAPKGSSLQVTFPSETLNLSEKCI

SMILES: CC(C)NC(=O)c1ccc2c(c1)[C@]1(CCO2)C[C@H]1C(=O)Nc1cc(C#N)ccc1CCCC(=O)O [Compound A, 4-[4-cyano-2-({[(2′R,4S)-6-(isopropylcarbamoyl)-2,3-dihydrospiro[chromene-4,1′-cyclopropan]-2′-yl]carbonyl}amino)phenyl]butanoic acid]
- activity at EP4 receptor (EP4 receptor [1]): antagonistic activity
- binding to EP4 receptor (EP4 receptor [2]): strongly binds
- survival time compared with vehicle administration group ([3]; GL261 orthotopic graft): longer than that of the vehicle administration group
- day after which all the mice had died ([3]; GL261 transplanted to brain of female C57BL/6J mice, days 5-70 from transplant, 10 mice per group): 42 days
